Results: patent US11148999B2, “Nitric oxide donors” (MedChem Partners, LLC, priority 2016, dated 2021)

Test system: not listed separately
Experiment: NO release in PBS versus rat plasma (Griess reaction)
Type: in vitro ADME
Details: 100 μM in PBS versus rat plasma, 37° C., readings at 0 minutes, 30 minutes, 3 hours; classified and ranked on NO release behavior
Description: The compounds were dissolved in DMSO and added to PBS and then incubated at 37° C. NO release was measured using the Griess reaction at t=0, 30 minutes, and 3 hours. NO production in this assay was an indication of the hydrolytic instability of the capping group. […] Compounds were dissolved in DMSO and added to rat plasma and then incubated at 37° C. NO release was measured using the Griess reaction at t=0, 30 minutes, and 3 hours. Differences in the amount and rate of NO release reflect the kinetics of hydrolysis of the capping groups by proteases endogenous to the rat plasma. This experiment reflected the ability of compounds to release NO in vivo. For both panels A and B, the compounds tested are labelled as: 506-3-91 is Compound 31, 506-3-159 is Compound 33, 506-3-123 is Compound 32, 506-3-149 is Compound 30, 506-3-117 is Compound 26506-3-121 is Compound 29, 506-3-153 is Compound 27, 506-3-151 is Compound 28, 506-3-145 is Compound 7, 506-3-93 is Compound 10, 506-3-113 is Compound 4, 506-3-111 is Compound 11, 506-3-133 is Compound 12, 506-3-131 is Compound 13, 506-3-81 is Compound 14, 506-3-103 is Compound 18, 506-3-157 is Compound 19, 506-3-115 is Compound 9, 506-3-143 is Compound 6, and 506-3-147 is Compound 8. For all compounds, three time points are shown (left to right for each labelled compound): 0 time point, 30 minutes time point, and 3 hours time point.
Compounds were tested for release of NO in PBS versus rat plasma using the Griess reaction. The Griess reaction works by the colorimetric measurement of nitrite levels which is the primary breakdown product of NO. To determine stability, as well as NO release behavior in a biological environment, the compounds were tested for NO release in both PBS and rat plasma at 37° C. […]
Additional experiments were carried out to test the NO release capability of 100 μM of the compounds in PBS versus Rat Plasma. In these experiments, NO release kinetics was explored by taking readings at 0 minutes, 30 minutes, and 3 hours. The results are shown in FIG. 2, panels A and B. From these studies, the compounds were classified and ranked based on their NO release behavior as shown in the Table below.

SMILES | Release Behavior
CCN(CC)/[N+]([O-])=N/OCN1C(=O)c2ccccc2C1=O [Compound 506-3-81, (Z)-1-((1,3-dioxoisoindolin-2-yl)methoxy)-3,3-diethyltriaz-1-ene 2-oxide] | unstable
O=C1c2ccccc2C(=O)N1CO/N=[N+](\[O-])N1CCCC1CO (stereo not shown) [Compound 506-3-91, (Z)-2-((1,3-dioxoisoindolin-2-yl)methoxy)-1-(2-(hydroxymethyl)pyrrolidin-1-yl)diazene oxide] | unstable
CCN(CC)/[N+]([O-])=N/OCOC(=O)C(C)(C)NC(=O)OC(C)(C)C [Compound 506-3-93, (Z)-3-ethyl-10,10,14,14-tetramethyl-9,12-dioxo-6,8,13-trioxa-3,4,5,11-tetraazapentadec-4-ene 4-oxide] | slow/low release
CCN(CC)/[N+]([O-])=N/OCSC [Compound 506-3-103, (Z)-3,3-diethyl-1-((methylthio)methoxy)triaz-1-ene 2-oxide] | slow/low release
CCCCCCCCCCC(=O)OCO/N=[N+](\[O-])N(CC)CC [Compound 506-3-111, (Z)-3,3-diethyl-1-((undecanoyloxy)methoxy)triaz-1-ene 2-oxide] | quick/long release
CCN(CC)/[N+]([O-])=N/OCOC(=O)[C@@H](NC(=O)OC(C)(C)C)C(C)C [Compound 506-3-113, (S,Z)-3-ethyl-10-isopropyl-14,14-dimethyl-9,12-dioxo-6,8,13-trioxa-3,4,5,11-tetraazapentadec-4-ene 4-oxide] | slow onset
CCC(CC)C(=O)OCO/N=[N+](\[O-])N(CC)CC [Compound 506-3-115, (Z)-3,3-diethyl-1-(((2-ethylbutanoyl)oxy)methoxy)triaz-1-ene 2-oxide] | slow onset
CC(C)(C)C(=O)OCO/N=[N+](\[O-])N1CCCC1CO (stereo not shown) [Compound 506-3-117, (Z)-1-(2-(hydroxymethyl)pyrrolidin-1-yl)-2-((pivaloyloxy)methoxy)diazene oxide] | steady

The next lines start with the values.

Release Behavior | SMILES
slow/low release | CC(C)OC(=O)OCO/N=[N+](\[O-])N1CCCC1CO (stereo not shown) [Compound 506-3-121, (Z)-1-(2-(hydroxymethyl)pyrrolidin-1-yl)-2-(((isopropoxycarbonyl)oxy)methoxy)diazene oxide]
slow/low release | CSCO/N=[N+](\[O-])N1CCCC1CO (stereo not shown) [Compound 506-3-123, (Z)-1-(2-(hydroxymethyl)pyrrolidin-1-yl)-2-((methylthio)methoxy)diazene oxide]
steady/low | CCN(CC)/[N+]([O-])=N/OC(C)OC(=O)OC(C)C (stereo not shown) [Compound 506-3-131, (Z)-3-ethyl-7,11-dimethyl-9-oxo-6,8,10-trioxa-3,4,5-triazadodec-4-ene 4-oxide]
unstable | CCN(CC)/[N+]([O-])=N/OC(C)OC(=O)OC(C)(C)C (stereo not shown) [Compound 506-3-133, (Z)-3-ethyl-7,11,11-trimethyl-9-oxo-6,8,10-trioxa-3,4,5-triazadodec-4-ene 4-oxide]
intermediate | CCCC(=O)OCO/N=[N+](\[O-])N(CC)CC [Compound 506-3-143, (Z)-1-((butyryloxy)methoxy)-3,3-diethyltriaz-1-ene 2-oxide]
steady | CCN(CC)/[N+]([O-])=N/OCOC(=O)c1ccccc1 [Compound 506-3-145, (Z)-1-((benzoyloxy)methoxy)-3,3-diethyltriaz-1-ene 2-oxide]
slow onset | CCC(CC)C(=O)OCO/N=[N+](\[O-])N1CCCC1CO (stereo not shown) [Compound 506-3-149, (Z)-2-(((2-ethylbutanoyl)oxy)methoxy)-1-(2-(hydroxymethyl)pyrrolidin-1-yl)diazene oxide]
slow onset | O=C(OCO/N=[N+](\[O-])N1CCCC1CO)c1ccccc1 (stereo not shown) [Compound 506-3-151, (Z)-2-((benzoyloxy)methoxy)-1-(2-(hydroxymethyl)pyrrolidin-1-yl)diazene oxide]
steady/low | CCCC(=O)OCO/N=[N+](\[O-])N1CCCC1CO (stereo not shown) [Compound 506-3-153, (Z)-2-((butyryloxy)methoxy)-1-(2-(hydroxymethyl)pyrrolidin-1-yl)diazene oxide]
slow/low release | CCN(CC)/[N+]([O-])=N/OC[S+](C)[O-] (stereo not shown) [Compound 506-3-157, (Z)-3,3-diethyl-1-((methylsulfinyl)methoxy)triaz-1-ene 2-oxide]
slow/low release | C[S+]([O-])CO/N=[N+](\[O-])N1CCCC1CO (stereo not shown) [Compound 506-3-159, (Z)-1-(2-(hydroxymethyl)pyrrolidin-1-yl)-2-((methylsulfinyl)methoxy)diazene oxide]

Test system: diabetic Lep/r-db/db mice
Experiment: Initial dose range wound healing study, murine diabetic wound model, PVA gel
Type: in vivo
Details: PVA gel with 10, 50, 100 uM test article versus PVA gel alone, applied twice a day, day 7, 1-cm^2 full-thickness wound
Description: A murine diabetic wound model for utilized to test the ability of the gel formulation of the invention to accelerate wound healing. Specifically, diabetic Lep/r-db/db mice were used to study the effects of the gel formulation on granulation tissue thickness, density of α-smooth muscle actin-positive myofibroblasts, wound healing kinetics, blood vessel density, cell proliferation, and tissue ingrowth.
An initial dose range study was performed to study the effects of the compounds of the invention on wound healing. Five homozygous diabetic 8-12 weeks old, Lep/r-db/db male mice (strain C57BL/KsJ-Leprdb) were anesthetized with 60 mg/kg pentobarbital and disinfected with 70% alcohol. Subsequently, a 1-cm^2 full-thickness wound was excised on the dorsa of the mice. The mice were then treated with either PVA gel containing no test article (Control), PVA gel containing test article (i.e., compound 506-3-111) at 10 uM concentration, PVA gel containing test article at 50 uM concentration, or PVA gel containing test article at 100 uM concentration. Immediately after wounding, the experimental groups had the NO releasing gel material applied to the wound twice a day and the control group had only the un-medicated gel applied to the wound. Dressing changes were performed twice daily. […]

SMILES | wound size
CCCCCCCCCCC(=O)OCO/N=[N+](\[O-])N(CC)CC [Compound 506-3-111, (Z)-3,3-diethyl-1-((undecanoyloxy)methoxy)triaz-1-ene 2-oxide] | clear dose dependent reduction in wound size

Same assay, conditions: PVA gel, 10 to 100 uM, topical twice a day, 7 days

SMILES | tolerability (adverse effects or toxicity)
CCCCCCCCCCC(=O)OCO/N=[N+](\[O-])N(CC)CC [Compound 506-3-111, (Z)-3,3-diethyl-1-((undecanoyloxy)methoxy)triaz-1-ene 2-oxide] | well tolerated with no adverse effects or toxicity even at the highest dose

Test system: not listed separately
Experiment: Stability of the pure compound on storage
Type: physicochemical
Details: not given

SMILES | stability of the pure compound
CCCCCCCCCCC(=O)OCO/N=[N+](\[O-])N(CC)CC [Compound 506-3-111, (Z)-3,3-diethyl-1-((undecanoyloxy)methoxy)triaz-1-ene 2-oxide] | stable for over one year
